# Experimental data taken from US7696161B2, “Exendin agonist compounds” (Amylin Pharmaceuticals, Inc., priority 1997, dated 2010).
# pEC50: −log10 of the molar value.
# Experiments:
# [1] = target: cyclase (RINm5f membranes); experiment: Cyclase activation study (cAMP by SPA immunoassay, membranes); format: biochemical; details: cAMP in membranes, 20 minutes incubation at 37° C.
# Procedure: GLP-1(7-36) [NH2] was purchased from Bachem (Torrance, Calif.). All other peptides were prepared using synthesis methods such as those described therein. All chemicals were of the highest commercial grade. The cAMP SPA immunoassay was purchased from Amersham. The radioligands were purchased from New England Nuclear (Boston, Mass.). […] Cells were grown to confluence then harvested and homogenized using on a Polytron homogenizer. Cell homogenates were stored frozen at −70° C. until used. […] Membranes and peptides were combined in […] of assay buffer in 96 well filter-bottom plates (Millipore Corp., Bedford, Mass.). […] Supernatant cAMP contents were quantitated by SPA immunoassay. […] The biological activity of a particular sample was expressed as an EC50 value, calculated as described above.
# C57BLKS/J-m-db mice = experiment: Determination of blood glucose levels in db/db mice; format: in vivo; details: 1 μg subcutaneous, plasma glucose one hour after injection vs baseline
pEC50 [1],Compound,% drop in glucose (C57BLKS/J-m-db mice) [%]
9.12,CC[C@H](C)[C@H](NC(=O)[C@H](Cc1ccccc1)NC(=O)[C@H](C)NC(=O)[C@H](CCCNC(=N)N)NC(=O)[C@@H](NC(=O)[C@H](C)NC(=O)[C@H](CCC(=O)O)NC(=O)[C@H](CCC(=O)O)NC(=O)[C@H](CCC(=O)O)NC(=O)[C@H](CC(C)C)NC(=O)[C@H](CCC(N)=O)NC(=O)[C@H](CCCCN)NC(=O)[C@H](CO)NC(=O)[C@H](CC(C)C)NC(=O)[C@H](CC(=O)O)NC(=O)[C@H](CO)NC(=O)[C@@H](NC(=O)[C@H](Cc1ccccc1)NC(=O)[C@@H](NC(=O)CNC(=O)[C@H](CCC(=O)O)NC(=O)CNC(=O)[C@@H](N)Cc1c[nH]cn1)[C@@H](C)O)[C@@H](C)O)C(C)C)C(=O)N[C@@H](CCC(=O)O)C(=O)N[C@@H](Cc1ccccc1)C(=O)N[C@@H](CC(C)C)C(=O)N[C@@H](CCCCN)C(=O)N[C@@H](CC(N)=O)C(N)=O [Compound 18],50
7.20,CC[C@H](C)[C@H](NC(=O)[C@H](Cc1ccccc1)NC(=O)[C@H](CC(C)C)NC(=O)[C@H](CCCNC(=N)N)NC(=O)[C@@H](NC(=O)[C@H](C)NC(=O)[C@H](CCC(=O)O)NC(=O)[C@H](CCC(=O)O)NC(=O)[C@H](CCC(=O)O)NC(=O)[C@H](CC(C)C)NC(=O)[C@H](CCC(N)=O)NC(=O)[C@H](CCCCN)NC(=O)[C@H](CO)NC(=O)[C@H](CC(C)C)NC(=O)[C@H](CC(=O)O)NC(=O)[C@H](C)NC(=O)[C@@H](NC(=O)[C@H](Cc1ccccc1)NC(=O)[C@@H](NC(=O)CNC(=O)[C@H](CCC(=O)O)NC(=O)CNC(=O)[C@@H](N)Cc1c[nH]cn1)[C@@H](C)O)[C@@H](C)O)C(C)C)C(=O)N[C@@H](CCC(=O)O)C(=O)N[C@@H](Cc1ccccc1)C(=O)N[C@@H](CC(C)C)C(=O)N[C@@H](CCCCN)C(=O)N[C@@H](CC(N)=O)C(N)=O [Compound 7],31
9.66,CC[C@H](C)[C@H](NC(=O)[C@H](Cc1ccccc1)NC(=O)[C@H](CC(C)C)NC(=O)[C@H](CCCNC(=N)N)NC(=O)[C@@H](NC(=O)[C@H](C)NC(=O)[C@H](CCC(=O)O)NC(=O)[C@H](CCC(=O)O)NC(=O)[C@H](CCC(=O)O)NC(=O)[C@H](CC(C)C)NC(=O)[C@H](CCC(N)=O)NC(=O)[C@H](CCCCN)NC(=O)[C@H](CO)NC(=O)[C@H](CC(C)C)NC(=O)[C@H](CC(=O)O)NC(=O)[C@H](CO)NC(=O)[C@@H](NC(=O)[C@H](Cc1ccccc1)NC(=O)[C@@H](NC(=O)CNC(=O)[C@H](CCC(=O)O)NC(=O)[C@H](C)NC(=O)[C@@H](N)Cc1c[nH]cn1)[C@@H](C)O)[C@@H](C)O)C(C)C)C(=O)N[C@@H](CCC(=O)O)C(=O)N[C@@H](Cc1ccccc1)C(=O)N[C@@H](CC(C)C)C(=O)N[C@@H](CCCCN)C(=O)N[C@@H](CC(N)=O)C(N)=O [Compound 4],27
8.95,CC[C@H](C)[C@H](NC(=O)[C@H](Cc1ccccc1)NC(=O)[C@H](CC(C)C)NC(=O)[C@H](CCCNC(=N)N)NC(=O)[C@@H](NC(=O)[C@H](C)NC(=O)[C@H](CCC(=O)O)NC(=O)[C@H](C)NC(=O)[C@H](CCC(=O)O)NC(=O)[C@H](CC(C)C)NC(=O)[C@H](CCC(N)=O)NC(=O)[C@H](CCCCN)NC(=O)[C@H](CO)NC(=O)[C@H](CC(C)C)NC(=O)[C@H](CC(=O)O)NC(=O)[C@H](CO)NC(=O)[C@@H](NC(=O)[C@H](Cc1ccccc1)NC(=O)[C@@H](NC(=O)CNC(=O)[C@H](CCC(=O)O)NC(=O)CNC(=O)[C@@H](N)Cc1c[nH]cn1)[C@@H](C)O)[C@@H](C)O)C(C)C)C(=O)N[C@@H](CCC(=O)O)C(=O)N[C@@H](Cc1ccccc1)C(=O)N[C@@H](CC(C)C)C(=O)N[C@@H](CCCCN)C(=O)N[C@@H](CC(N)=O)C(N)=O [Compound 14],54
7.81,CC[C@H](C)[C@H](NC(=O)[C@H](Cc1ccccc1)NC(=O)[C@H](CC(C)C)NC(=O)[C@H](CCCNC(=N)N)NC(=O)[C@@H](NC(=O)[C@H](C)NC(=O)[C@H](CCC(=O)O)NC(=O)[C@H](CCC(=O)O)NC(=O)[C@H](CCC(=O)O)NC(=O)[C@H](C)NC(=O)[C@H](CCC(N)=O)NC(=O)[C@H](CCCCN)NC(=O)[C@H](CO)NC(=O)[C@H](CC(C)C)NC(=O)[C@H](CC(=O)O)NC(=O)[C@H](CO)NC(=O)[C@@H](NC(=O)[C@H](Cc1ccccc1)NC(=O)[C@@H](NC(=O)CNC(=O)[C@H](CCC(=O)O)NC(=O)CNC(=O)[C@@H](N)Cc1c[nH]cn1)[C@@H](C)O)[C@@H](C)O)C(C)C)C(=O)N[C@@H](CCC(=O)O)C(=O)N[C@@H](Cc1ccccc1)C(=O)N[C@@H](CC(C)C)C(=O)N[C@@H](CCCCN)C(=O)N[C@@H](CC(N)=O)C(N)=O [Compound 12],53
8.98,CC[C@H](C)[C@H](NC(=O)[C@H](Cc1ccccc1)NC(=O)[C@H](CC(C)C)NC(=O)[C@H](CCCNC(=N)N)NC(=O)[C@@H](NC(=O)[C@H](C)NC(=O)[C@H](C)NC(=O)[C@H](CCC(=O)O)NC(=O)[C@H](CCC(=O)O)NC(=O)[C@H](CC(C)C)NC(=O)[C@H](CCC(N)=O)NC(=O)[C@H](CCCCN)NC(=O)[C@H](CO)NC(=O)[C@H](CC(C)C)NC(=O)[C@H](CC(=O)O)NC(=O)[C@H](CO)NC(=O)[C@@H](NC(=O)[C@H](Cc1ccccc1)NC(=O)[C@@H](NC(=O)CNC(=O)[C@H](CCC(=O)O)NC(=O)CNC(=O)[C@@H](N)Cc1c[nH]cn1)[C@@H](C)O)[C@@H](C)O)C(C)C)C(=O)N[C@@H](CCC(=O)O)C(=O)N[C@@H](Cc1ccccc1)C(=O)N[C@@H](CC(C)C)C(=O)N[C@@H](CCCCN)C(=O)N[C@@H](CC(N)=O)C(N)=O [Compound 15],45
7.36,CC[C@H](C)[C@H](NC(=O)[C@H](Cc1ccccc1)NC(=O)[C@H](CC(C)C)NC(=O)[C@H](C)NC(=O)[C@@H](NC(=O)[C@H](C)NC(=O)[C@H](CCC(=O)O)NC(=O)[C@H](CCC(=O)O)NC(=O)[C@H](CCC(=O)O)NC(=O)[C@H](CC(C)C)NC(=O)[C@H](CCC(N)=O)NC(=O)[C@H](CCCCN)NC(=O)[C@H](CO)NC(=O)[C@H](CC(C)C)NC(=O)[C@H](CC(=O)O)NC(=O)[C@H](CO)NC(=O)[C@@H](NC(=O)[C@H](Cc1ccccc1)NC(=O)[C@@H](NC(=O)CNC(=O)[C@H](CCC(=O)O)NC(=O)CNC(=O)[C@@H](N)Cc1c[nH]cn1)[C@@H](C)O)[C@@H](C)O)C(C)C)C(=O)N[C@@H](CCC(=O)O)C(=O)N[C@@H](Cc1ccccc1)C(=O)N[C@@H](CC(C)C)C(=O)N[C@@H](CCCCN)C(=O)N[C@@H](CC(N)=O)C(N)=O [Compound 17],45
8.17,CC[C@H](C)[C@H](NC(=O)[C@H](Cc1ccccc1)NC(=O)[C@H](CC(C)C)NC(=O)[C@H](CCCNC(=N)N)NC(=O)[C@@H](NC(=O)[C@H](C)NC(=O)[C@H](CCC(=O)O)NC(=O)[C@H](CCC(=O)O)NC(=O)[C@H](CCC(=O)O)NC(=O)[C@H](CC(C)C)NC(=O)[C@H](CCC(N)=O)NC(=O)[C@H](CCCCN)NC(=O)[C@H](CO)NC(=O)[C@H](C)NC(=O)[C@H](CC(=O)O)NC(=O)[C@H](CO)NC(=O)[C@@H](NC(=O)[C@H](Cc1ccccc1)NC(=O)[C@@H](NC(=O)CNC(=O)[C@H](CCC(=O)O)NC(=O)CNC(=O)[C@@H](N)Cc1c[nH]cn1)[C@@H](C)O)[C@@H](C)O)C(C)C)C(=O)N[C@@H](CCC(=O)O)C(=O)N[C@@H](Cc1ccccc1)C(=O)N[C@@H](CC(C)C)C(=O)N[C@@H](CCCCN)C(=O)N[C@@H](CC(N)=O)C(N)=O [Compound 8],44
9.32,CC[C@H](C)[C@H](NC(=O)[C@H](Cc1ccccc1)NC(=O)[C@H](CC(C)C)NC(=O)[C@H](CCCNC(=N)N)NC(=O)[C@@H](NC(=O)[C@H](C)NC(=O)[C@H](CCC(=O)O)NC(=O)[C@H](CCC(=O)O)NC(=O)[C@H](CCC(=O)O)NC(=O)[C@H](CC(C)C)NC(=O)[C@H](C)NC(=O)[C@H](CCCCN)NC(=O)[C@H](CO)NC(=O)[C@H](CC(C)C)NC(=O)[C@H](CC(=O)O)NC(=O)[C@H](CO)NC(=O)[C@@H](NC(=O)[C@H](Cc1ccccc1)NC(=O)[C@@H](NC(=O)CNC(=O)[C@H](CCC(=O)O)NC(=O)CNC(=O)[C@@H](N)Cc1c[nH]cn1)[C@@H](C)O)[C@@H](C)O)C(C)C)C(=O)N[C@@H](CCC(=O)O)C(=O)N[C@@H](Cc1ccccc1)C(=O)N[C@@H](CC(C)C)C(=O)N[C@@H](CCCCN)C(=O)N[C@@H](CC(N)=O)C(N)=O [Compound 11],40
8.77,CC[C@H](C)[C@H](NC(=O)[C@H](Cc1ccccc1)NC(=O)[C@H](CC(C)C)NC(=O)[C@H](CCCNC(=N)N)NC(=O)[C@@H](NC(=O)[C@H](C)NC(=O)[C@H](CCC(=O)O)NC(=O)[C@H](CCC(=O)O)NC(=O)[C@H](CCC(=O)O)NC(=O)[C@H](CC(C)C)NC(=O)[C@H](CCC(N)=O)NC(=O)[C@H](CCCCN)NC(=O)[C@H](C)NC(=O)[C@H](CC(C)C)NC(=O)[C@H](CC(=O)O)NC(=O)[C@H](CO)NC(=O)[C@@H](NC(=O)[C@H](Cc1ccccc1)NC(=O)[C@@H](NC(=O)CNC(=O)[C@H](CCC(=O)O)NC(=O)CNC(=O)[C@@H](N)Cc1c[nH]cn1)[C@@H](C)O)[C@@H](C)O)C(C)C)C(=O)N[C@@H](CCC(=O)O)C(=O)N[C@@H](Cc1ccccc1)C(=O)N[C@@H](CC(C)C)C(=O)N[C@@H](CCCCN)C(=O)N[C@@H](CC(N)=O)C(N)=O [Compound 9],41
